Measured values taken from US11266715B2, “C3A receptor agonists for use against ischemic brain injury, stroke, traumatic brain injury, spinal cord injury and neurodegenerative disorders” (priority 2016, dated 2022).

What was measured:
[1] = system: synapsin I+ puncta; experiment: Synapsin I immunostaining of cortex 21 days after stroke; assay type: in vivo, mouse; settings: for larger size of synapsin I+ puncta vs PBS-treated mice: ipsilesional motor cortex
Method: For immunofluorescent evaluation, sections were deparaffinized, heated three times for 5 min in a microwave oven in 0.01 M citric buffer (pH 6.0), and blocked in PBS containing 0.05% Tween-20 (Sigma) and 1% in Bovine serum albumin (BSA, Sigma) for GAP-43 and synapsin I staining, 3% normal goat serum for VGLUT1 staining or 4% normal donkey serum for GAP-43 double stainings. Goat anti-synapsin la/b antibody (1:150; Santa Cruz, sc-7379) was followed by biotin-conjugated donkey anti-goat immunoglobulin (Ig) secondary antibody (1:200; Jackson Research Lab, 705-065-147) and Cy3-conjugated streptavidin (1:100; Sigma). Guinea pig anti-VGLUT1 (1:500; Millipore, AB5905) was followed by Alexa Fluor 488 goat anti-guinea pig Ig (1:500; Molecular Probes, A11073). For single staining, mouse anti-GAP-43 antibody (1:1000; Millipore, MAB347), was followed by biotinylated rabbit anti-mouse Ig secondary antibody (1:200; Dako, E0354) and Cy3-conjugated streptavidin (1:100; Sigma). […]
Highest signal intensity single plane images of immunostained sections were obtained by laser scanning confocal microscope (LSM TCS SP2, Leica Microsystems, ×63/NA 1.3 objective for synapsin I and GAP-43; and LSM 700, Carl Zeiss for VGLUT1 ×40/NA 1.3) at 1024×1024 pixels resolution. […] Three standard sections per animal in 160 μm intervals were analysed. […]
Single-stained images were analysed using MetaMorph® software (Molecular Devices, ver. 2.8.5) to obtain number, average size and intensity of positive punctuate structures per image. […] An experimenter blinded to experimental group performed all image acquisitions and quantifications.

[2] = system: adult mice with global cerebral ischemia; settings: single intraventricular injection of C3a 30 min prior to training, assessed 24 h later; cited from earlier work

Question: What does the source list for “C3a: Purified human C3a peptide (Complement Technologies), C3a receptor agonist, amino acid sequence SEQ ID NO: 1”?
Answer: increase in density of synapsin I+ puncta ([1]; contralesional somatosensory cortex, P=0.030): 20%; larger size of synapsin I+ puncta vs PBS-treated mice ([1]; deep layers, P<0.0001): 8.1%; larger size of synapsin I+ puncta vs PBS-treated mice ([1]; superficial layers, P=0.0004): 9.7%; amnesia induced by global cerebral ischemia [2]: ameliorate amnesia
